Experiments:
Assay type in all cases: cell-based
[1] = system: primary cultures of mouse cortical neurons; assay: Mitochondrial respiration (Seahorse XF24, oxygen consumption rate); settings: 0.1 μM, FCCP 2 μM
Description: The effects of E, Q and E+Q on key parameters of mitochondrial respiration in primary cultures of mouse cortical neurons were measured using a Seahorse Bioscience XF24 Extracellular Flux Analyzer XF24 instrument. Oxygen consumption rate (OCR) in fmol/cell were normalized by counting viable cortical neurons at the end of each experiment. A seeding density of 80,000 neurons/well was sufficient to obtain a measurable basal OCR (4-6 fmol/min/cell) permitting both OCR induction and inhibition to be assessed. Mitochondrial function in cortical neurons was measured by the sequential injection of oligomycin (2 μM), FCCP (2 μM), rotenone (300 nM) and antimycin (5 μM) to control and OGD-exposed cultures treated with various concentrations of E, Q or E+Q (0.1 μM).

[2] = system: primary cultures of mouse cortical neurons; assay: Toxicity of high concentrations to cortical neuron cultures; settings: concentrations of 10 μg/ml or above
[3] = system: primary cultures of mouse cortical neurons; assay: Oxygen glucose deprivation (OGD), cell viability by MTT assay; settings: for reduction in OGD-induced neuronal cell death / loss of cell viability (increase in neuronal survival): pretreatment 24 hrs before OGD (3 hrs), MTT 24 hrs after OGD; for reduction of loss in cell viability after OGD: treatment 0.5 hrs before OGD, 1 μg/ml, viability 24 hrs later
Description: Embryonic day 16 timed pregnant CD1 out-bred mice were obtained from Charles River Laboratories (Charles River; QC, Canada). Primary cortical neuron cultures were prepared from cerebral cortices of wild type (WT) CD1 mouse embryos as described previously, with the following modifications. Pregnant CD1 females were heavily anaesthetized with isoflurane vapor (Benson Medical Industries, Inc., Markham, ON) before being euthanized by decapitation. The embryonic day 16 (E16) fetuses were immediately removed from the sacrificed pregnant females by cesarean section and placed in ice-cold Hank's Balanced Salt Solution (HBSS) (GIBCO; Invitrogen, Amarillo, Calif.). The meninges were removed from the brains and cortices were isolated under a dissecting microscope. The cortices from each embryo were placed in individual wells of a 24-well plate (Corning; Lowell, Mass.), containing 1 ml of ice-cold PBS (GIBCO; […] Under sterile conditions, the tissue was briefly minced, transferred to 15 ml sterile conical tubes (Corning; Lowell, Mass.) and centrifuged at 350×g for 3 min at room temperature. The dissecting solution was discarded and the cortical neurons were then dissociated trituration with fire-polished glass pipettes followed by incubating in 1 ml of 0.1% trypsin solution (0.1% w/v trypsin (Invitrogen, Amarillo, Calif.) in PBS with 1 mM Mg^2+ and 13 mM glucose) at 37° C. for 15 min. The trypsinization was inhibited by the addition of 0.5 ml of trypsin inhibitor solution that also contained DNase I (0.06% w/v trypsin inhibitor (Invitrogen; Amarillo, Calif.) and 0.01% DNase I (Invitrogen; […] The tubes were mixed briefly and the cells were centrifuged at 350×g for 3 min at room temperature. The trypsin and inhibitor solutions were discarded and each cell pellet was suspended in 1 ml of cortical neuron plating medium (Neurobasal medium (Invitrogen, Amarillo, Calif.) with 10% fetal bovine serum (GIBCO; Invitrogen; Amarillo, Calif.), 2% B27 supplement, 1 mM L-glutamine, and 1% Gentamycin (Invitrogen; […] Cortical neurons were plated in 96-well plates (Corning; Lowell, Mass.) that were pre-coated with poly-D-lysine (PDL; Sigma-Aldrich; Oakville, ON) according to the procedure described by the manufacturer. Briefly, plates were coated immediately before use with 100 μg/ml PDL for 5-10 min (50 μl/well), washed three times with tissue-culture grade water and left to dry for 2 h before cells were introduced. Cortical neurons were plated at a concentration of 1×10^6 cells/ml (100 µl/well) and medium was completely changed the day after plating to serum-free cortical neuron medium (Neurobasal medium with 2% B27 supplement, 5 mM HEPES, 0.5 mM L-glutamine, and 20 μg/ml Gentamycin), which was replaced every 3 days in culture. Cultures were maintained in a humidified, 37° C. incubator with 5% CO2. Experiments were performed on the eighth day in vitro (DIV10). […] Glucose-free medium (glucose-free Dulbecco's Modified Eagle Medium (GBSS, Invitrogen; Amarillo, Calif.) containing either epicatechin or quercetin or epicatechin plus quercetin at concentration of 1 μg/ml or 3 μg/ml or the corresponding DMSO control (0.02% DMSO) was placed in a 96-well plate and equilibrated to 0% oxygen in a modular chamber incubator (Billups-Rothenberg; Del Mar, Calif.). The chamber was flushed for 4 min at 20 l/min with an anoxic gas mixture (5% CO2 and Balanced […]; Dartmouth, NS) using a step-down pressure system and placed in a humidified, 37° C. incubator for 12 h. Cortical neuron medium was replaced with OGD-medium (anoxic and glucose-free) and the cultures were placed in the modular chamber incubator. The chamber was flushed again with anoxic gas and placed inside a humidified, 37° C. incubator for 3 hrs. […] Cell viability was assessed 24 hours after the completion of OGD. The culture media was exchanged for MEM media without phenol red containing 0.5 mg/ml MTT (3-[4,5-dimethylthiazol-2-yl]-2,5-diphenyltetrazolium bromide). […]

[4] = 1 μg/ml total flavonoid (~3 μM; E+Q 0.5 μg/ml each)
[5] = 3 μg/ml total flavonoid (~10 μM; E+Q 1.5 μg/ml each)

O=c1c(O)c(-c2ccc(O)c(O)c2)oc2cc(O)cc(O)c12 [Q]
loss of spare respiratory capacity (SRC) after OGD [1]: only partially reversed
toxicity to primary cultures of mouse cortical neurons [2]: increasingly toxic
reduction in OGD-induced neuronal cell death / loss of cell viability (increase in neuronal survival) [3, 4]: failed to protect
reduction in OGD-induced neuronal cell death / loss of cell viability (increase in neuronal survival) [3, 5]: modestly reduced the loss in cell viability
reduction in OGD-induced neuronal cell death / loss of cell viability (increase in neuronal survival) ([3]; 3 μg/ml total flavonoid (~10 μM; E+Q 1.5 μg/ml each), listed as quercetin): 30%
reduction of loss in cell viability after OGD [3]: did not reduce the loss in cell viability

Oc1cc(O)c2c(c1)O[C@H](c1ccc(O)c(O)c1)[C@H](O)C2 [E, (2R,3R)-2-(3,4-dihydroxyphenyl)-3,4-dihydro-2H-chromene-3,5,7-triol]
loss of spare respiratory capacity (SRC) after OGD [1]: only partially reversed
toxicity to primary cultures of mouse cortical neurons [2]: increasingly toxic
reduction in OGD-induced neuronal cell death / loss of cell viability (increase in neuronal survival) [3, 4]: modestly reduced the loss in cell viability
reduction in OGD-induced neuronal cell death / loss of cell viability (increase in neuronal survival) ([3]; 1 μg/ml total flavonoid (~3 μM; E+Q 0.5 μg/ml each), listed as Epicatechin): 30%
reduction in OGD-induced neuronal cell death / loss of cell viability (increase in neuronal survival) [3, 5]: protected
reduction of loss in cell viability after OGD [3]: did not reduce the loss in cell viability

— US20170027902A1, “Use of a Composition Comprising a Flavonol, A Flavonoid, and a Fatty Acid in the Treatment of Oxidative Injuries Due to Mitochondrial Dysfunction” (priority 2014, published 2017)
